According to patent publication US20220241333A1, “MODULATION OF T CELL CYTOTOXICITY AND RELATED THERAPY” (Cancer Research Technology Limited, priority 2019, published 2022):

Experiments:
CD4+ effector T cells = assay: GZMB expression in mouse CD4+ effector T cells treated with Bcl6 degrader (flow cytometry); format: cell-based; conditions: 10 nM, 72 h, low dose αCD3+αCD28 0.1 ug/ml
Procedure: Spleens and lymph nodes were taken from C57BL/6J mice, and processed through a 70 μm mesh using PBS, followed by red blood cell lysis using Red Blood cell lysis buffer (Sigma) according to the manufacturer's protocol. Lymphocytes were labelled with CellTrace Violet (ThermoFisher) according to manufacturer's protocol and cultured in RPMI media supplemented with 10% fetal bovine serum, 100 U/mL penicillin, 100 ug/ml streptomycin and 2 mM L-glutamine for 72 h. Cells were either left unstimulated or stimulated with αCD3 (clone 2C11, BioXcell) and αCD28 (clone 37.51, BioXcell) at 0.1 ug/ml. Cells were additionally treated with a Bcl6 degrader (BI-3802) or with a control compound (BI-5273), at a final concentration of 10 nM. […] Cells were stained for flow cytometry using a fixable viability dye (eBiosciences) and with directly conjugated antibodies against CD3, CD4, CD8, FoxP3, CD25, GzmB, PD-1 and Bcl6 using the FoxP3 Transcription factor staining Buffer set (ThermoFisher) according to the manufacturer's instructions.

Bcl6 = Bcl6 (Homo sapiens, UniProt P41182); conditions: compared with BI-3802; cited from earlier work
human CD8+ T cells = assay: GZMB and BCL6 expression in human CD8+ T cells (PBMCs) treated with Bcl6 targeting drugs (flow cytometry); format: cell-based; conditions: 100 nM, 72 h, low dose αCD3 0.5 ug/ml; compared to control compound BI-5273
Procedure: (§1) Healthy donor human PBMCs were labelled with CellTrace Violet (ThermoFisher) according to manufacturer's protocol and cultured in RPMI media supplemented with 10% fetal bovine serum, 100 U/mL penicillin, 100 ug/ml streptomycin and 2 mM L-glutamine for 72 h. Cells were either left unstimulated or stimulated with αCD3 (clone OKT3) at a final concentration of 0.5 ug/ml. Cells were additionally treated with Bcl6 targeting drugs, or with a control compound (BI-5273), at a final concentration of 100 nM. Cells were stained for flow cytometry using a fixable viability dye (eBiosciences) and with directly conjugated antibodies against human CD3, CD4, CD8, FoxP3, CD25, GzmB, and Bcl6 using the FoxP3 Transcription factor staining Buffer set (ThermoFisher) according to the manufacturer's instructions.

[1] = tested on: human CD4+ effector T cells; assay: GZMB expression in human CD4+ effector T cells (PBMCs) treated with Bcl6 targeting drugs (flow cytometry); format: cell-based; conditions: 100 nM, 72 h, low dose αCD3 0.5 ug/ml
Procedure: as §1

human naive CD4+ T cells = assay: GzmB expression in aCD3/aCD28-stimulated human naive CD4+ T cells; format: cell-based; conditions: blockade of IL-2R signalling with anti-human CD25
Procedure: FACS-purified human CD4^+ T cells were cultured in RPMI complete medium with irradiated autologous feeders cells in 1:1 ratio for 96 h, stimulated with aCD3 (OKT3) and aCD28 (9.3; BioXcell). To some wells anti-CD25 antibody (Basiliximab; Novartis) was added 48 hours post aCD3/CD28 stimulation.

[2] = tested on: CD4+ Trp1 and OT-II T cells; assay: GzmB upregulation in CD4+ Trp1 and OT-II TCR Tg T cells stimulated in vitro with antigen and cytokines; format: cell-based, mouse; conditions: low antigen concentration (0.01 μM OVA peptide), comparison of CGAMMA chain cytokines
Procedure: Purified CD4+ T cells (CD4 T cells beads, Miltenyi or CD4 Dyna Beads, Invitrogen) were cultured in RPMI complete medium (as above) together with DC and irradiated feeder cells (40 Gy) in 2:1:1 ratio for 72 or 96 h. Polyclonal CD4+ T cells were stimulated with anti-CD3 (2C11) and anti-CD28 (37.51) (BioXcell); OT-II cells with OVA peptide (Pepscan) and Trp-1 cells with Trp-1 peptide (Pepscan) at concentration indicated in figure legend. Mouse CD4 T cells were cultured with aCD25 (PC61) and aIL-2 (JES6-1A12, BioXcell).
We therefore evaluated the potential contribution of CGAMMA receptor cytokines to the upregulation of GzmB in tumour-reactive CD4^+ T cells.

[3] = compared to control compound BI-5273
[4] = relative to control compound BI-5273

Question: Which “Mean fluorescence intensity of GZMB in CD4+ effector T cells” value (CD4+ effector T cells; [3]) does the source give for `CNC(=O)COc1cc2cc(Nc3nc(N4C[C@H](C)C[C@H](C)C4)ncc3Cl)ccc2n(C)c1=O` [BI-3802] here?
Answer: increased GZMB expression

Question: And the “Percentage of CD4+ effector T cells that express GZMB” value (CD4+ effector T cells; [4])?
Answer: significantly greater percentage

Question: Which Bcl6 inhibitor activity (Bcl6) does the source give for `C[C@@H]1C[C@H](C)CN(c2ncc(Cl)c(Nc3ccc4c(c3)cc(OC(C)(C)C(=O)O)c(=O)n4C)n2)C1` [BI-5273] here?
Answer: significantly reduced Bcl6 inhibitor activity

Question: Which “Percentage of human CD8+ T cells that express BCL6” value (human CD8+ T cells) does the source give for `C[C@@H]1CN(c2ncc(Cl)c(Nc3ccc4c(c3)n(CCC(C)(C)O)c(=O)n4C)n2)C[C@H](C)C1(F)F` [CCT369260, 5-((5-chloro-2-((3R,5S)-4,4-difluoro-3,5-dimethylpiperidin-1-yl)pyrimidin-4-yl)amino)-3-(3-hydroxy-3-methylbutyl)-1-methyl-1,3-dihydro-2H-benzo[d]imidazol-2-one] here?
Answer: significantly lower percentage

Question: And the “Percentage of human CD8+ T cells that express GZMB” value (human CD8+ T cells)?
Answer: A decrease, although not statistically significant

Question: What about the “Mean fluorescence intensity (MFI) of GZMB in human CD4+ effector T cells” value [1, 3] of the same molecule?
Answer: increased GZMB expression

Question: What about the “Percentage of human CD4+ effector T cells that express GZMB” value [1, 4] of the same molecule?
Answer: significantly greater percentage

Question: Which GzmB expression (human naive CD4+ T cells) does the source give for Basiliximab here?
Answer: significantly reduced GzmB expression to levels below those of the untreated control sample

B1: IL-7: cytokine (Peprotech) added to T cell cultures (protein, UniProt P13232 26-177, looked up)
Interleukin-7: DCDIEGKDGKQYESVLMVSIDQLLDSMKEIGSNCLNNEFNFFKRHICDANKEGMFLFRAARKLRQFLKMNSTGDFDLHLLKVSEGTTILLNCTGQVKGRKPAALGEAQPTKSLEENKSLKEQKKLNDLCFLKRLLQEIKTCWNKILMGTKEH
Question: For B1, which “Induction of GzmB” value [2] is on record?
Answer: at a much lower level
